Experimental data reported in patent publication US7655768B2, “Galactose derivative, drug carrier and medicinal composition” (Nippon Shinyaku Co., Ltd., priority 2004, dated 2010).

System: HuH-7 cells (human hepatoma cell line)
Assay: Expression efficiency of luciferase plasmid DNA delivered by carrier compositions in HuH-7 cells
Type: cell-based
Conditions: 24 hours after addition of composition, carriers of Examples 9 to 13 with rising content of the Example 2 derivative, compared with carrier of Comparative Example 1, FIG. 1
Experimental: By adding 50 μL of 10% maltose solution to 1 μg of the plasmid DNA encording luciferase gene, 50 μL of the plasmid solution containing the plasmid at 20 μg/mL was prepared. In addition, by adding 44 μL of 10% maltose solution to 6 μL of the dispersion liquid of the carrier according to Example 9 to 13 or Comparative Example 1, 50 μL of the diluted solution of the carrier at 600 μg/mL was prepared.
50 μL of the above nucleic acid solution was added to 50 μL of the above diluted solution of the carrier, and then mixed gently. Then, the sample was left at room temperature for 15 minutes to prepare 100 μL of the composition solution containing the above plasmid at 10 μg/mL.
HuH-7 cells (human hepatoma cell line) were seeded on a 96-well plate at 1×10^4 cells/well, and were incubated for 18 hours at 37° C. under 5% CO2. Then, 10 μL of the composition containing the carrier according to Example 9 to 13 or Comparative Example 1 prepared above (1) was added per well, and incubation was further continued. After 24 hours from addition of the composition, luciferase activity was measured. Luciferase activity was measured by detecting the bioluminescence with Top Count (manufactured by Packard), using Steady Glo Luciferase Assay System (manufactured by Promega). Meanwhile, a comparative control was a cell given the composition containing the carrier according to Comparative Example 1.

## CCCCCCCC/C=C\CCCCCCCC(=O)OC[C@H](COP(=O)(O)OCCOCCOCCOCCOCCNC[C@H](O)[C@@H](O)[C@H](O[C@@H]1O[C@H](CO)[C@H](O)[C@H](O)[C@H]1O)[C@H](O)CO)OC(=O)CCCCCCC/C=C\CCCCCCCC [Example 2, L-α-dioleoylphosphatidyl{14-N-(1-deoxylactito-1-yl)amino-3,6,9,12-tetraoxa}tetradecanol]
  expression efficiency of luciferase gene (luciferase activity): increased as compared with that in the comparative control as a function of concentration of the derivative of the present invention
